Patent US5726165A, “Derivatives of 4-(2-aminoethyl)phenoxymethyl-phosphonic and -phosphinic acid and pharmaceutical and veterinary uses therefor” (SmithKline Beecham p.l.c., priority 1994, dated 1998)
Where a name gives a salt, the structure may show the parent alone.

How the values were obtained:
[1] = target: T1, human β1-adrenoceptor (Homo sapiens, UniProt P08588); test: Antagonist binding at β1-adrenoceptors, displacement of [125I]-iodocyanopindolol; settings: CHO cell plasma membranes; from binding IC50 by Cheng-Prusoff equation; read-out: Beta-1 Ki
T1 construct: expressed in transfected cells; host or cells: CHO cells (stably transfected subclones; membranes)
T1 sequence (P08588 whole entry): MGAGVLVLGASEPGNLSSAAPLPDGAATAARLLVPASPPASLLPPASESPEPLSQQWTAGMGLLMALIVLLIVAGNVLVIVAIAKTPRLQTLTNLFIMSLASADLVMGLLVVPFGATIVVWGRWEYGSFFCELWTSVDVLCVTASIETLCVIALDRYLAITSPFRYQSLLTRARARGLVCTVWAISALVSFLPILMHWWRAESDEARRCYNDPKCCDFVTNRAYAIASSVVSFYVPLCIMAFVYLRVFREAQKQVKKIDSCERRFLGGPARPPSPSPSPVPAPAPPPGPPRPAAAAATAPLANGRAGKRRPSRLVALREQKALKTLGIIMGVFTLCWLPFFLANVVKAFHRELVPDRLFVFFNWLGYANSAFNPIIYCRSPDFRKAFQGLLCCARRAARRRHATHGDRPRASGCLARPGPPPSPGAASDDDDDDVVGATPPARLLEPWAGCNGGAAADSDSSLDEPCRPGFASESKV
Procedure: (§1) Antagonist and Agonist Activity at Human β1, β2, and β3 -Adrenoceptors.
(§2) Subclones of CHO cells are stably transfected with each of the human β1, β2 and β3 -adrenoceptors^1. Cells are then disrupted by immersion in ice-cold lysis buffer (10 mM TRIS, 2 mM EDTA, pH 7.4) containing protease inhibitors leupeptin and benzamidine (5 μg/ml) and soyabean trypsin inhibitor (10 μg/ml). Membranes are prepared by the method of Bouvier el. al.^2 and stored in 1 ml aliquots in liquid N2 for future use.
(§3) Antagonist Binding at β1, and β2 -Adrenoceptors
(§4) Displacement of [^125 I]-iodocyanopindolol from CHO cell plasma membranes transfected with either the human β1, or β2 -adrenoceptors is carried out by the method of Blin et. al.^5. Ki values (nM) are calculated from the binding IC50 values for each agonist, using the Cheng-Prusoff equation.

[2] = target: T2, human β3-adrenoceptor (Homo sapiens, UniProt P13945); test: β3-adrenoceptor-mediated adenylyl cyclase activity (agonist); assay type: biochemical; settings: CHO cell plasma membranes; for EC50: agonist concentration producing 50% activation of adenylyl cyclase, cAMP over 20 minutes, read-out: Beta-3 EC50; for Emax: maximum response relative to that produced by (-) isoprenaline, read-out: Beta-3 (IA), intrinsic activity
T2 construct: expressed in transfected cells; host or cells: CHO cells (stably transfected subclones; membranes)
T2 sequence (P13945 whole entry): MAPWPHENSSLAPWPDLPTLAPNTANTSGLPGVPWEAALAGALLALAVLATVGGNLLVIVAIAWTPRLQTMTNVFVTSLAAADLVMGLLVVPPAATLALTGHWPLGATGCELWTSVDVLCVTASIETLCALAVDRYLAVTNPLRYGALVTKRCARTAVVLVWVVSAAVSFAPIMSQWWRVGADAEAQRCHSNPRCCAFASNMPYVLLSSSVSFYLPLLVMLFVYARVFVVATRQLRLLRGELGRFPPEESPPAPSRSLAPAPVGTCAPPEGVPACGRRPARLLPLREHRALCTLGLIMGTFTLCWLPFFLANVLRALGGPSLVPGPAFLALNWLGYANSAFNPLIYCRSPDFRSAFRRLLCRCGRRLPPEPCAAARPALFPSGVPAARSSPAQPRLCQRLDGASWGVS
Procedure: as §1, §2
β3 -Adrenoceptor-Mediated Adenylyl Cyclase Activity
Adenylyl cyclase activity is assayed by the method of Kirkham et. al.^3 by the addition of 40 μl (70-80 μg protein) to the incubation medium of the above CHO cell plasma membranes transfected with the human β3 -adrenoceptor. cAMP produced over 20 minutes is separated from ATP by the method of Salomon et al.^4. Agonist EC50 values and intrinsic activities are expressed as the concentration of agonist producing 50% activation of adenylyl cyclase and the maximum response produced by each agonist relative to that produced by (-) isoprenaline respectively.

[3] = target: T3, human β2-adrenoceptor (Homo sapiens, UniProt P07550); test: Antagonist binding at β2-adrenoceptors, displacement of [125I]-iodocyanopindolol; settings: CHO cell plasma membranes; from binding IC50 by Cheng-Prusoff equation; read-out: Beta-2 Ki
T3 construct: expressed in transfected cells; host or cells: CHO cells (stably transfected subclones; membranes)
T3 sequence (P07550 whole entry): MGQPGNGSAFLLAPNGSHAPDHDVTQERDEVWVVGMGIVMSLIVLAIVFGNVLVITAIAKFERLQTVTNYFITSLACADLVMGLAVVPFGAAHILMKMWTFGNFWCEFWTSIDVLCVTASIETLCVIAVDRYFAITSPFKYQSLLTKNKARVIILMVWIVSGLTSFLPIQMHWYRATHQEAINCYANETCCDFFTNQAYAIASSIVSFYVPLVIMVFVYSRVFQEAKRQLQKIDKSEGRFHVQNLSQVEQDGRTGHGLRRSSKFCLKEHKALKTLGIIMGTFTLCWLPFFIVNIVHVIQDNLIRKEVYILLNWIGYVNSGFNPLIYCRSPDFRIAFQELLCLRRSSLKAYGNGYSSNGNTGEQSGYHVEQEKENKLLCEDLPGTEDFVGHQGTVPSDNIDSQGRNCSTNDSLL
Procedure: as §1, §2, §3, §4

| Ki [1] [µM] | EC50 [2] [µM] | Emax [2] [%] | Ki [3] [µM] | Structure (SMILES) |
| --- | --- | --- | --- | --- |
| 155 | 1.26 | > 100 | 15 | C[C@H](Cc1ccc(OCP(=O)(O)c2ccccc2)cc1)NC[C@H](O)COc1ccc(O)c(CO)c1 (racemic) [Example 21, (SR)-4-{2-[2-Hydroxy-3-(4-hydroxy-3-hydroxymethylphenoxy)propylamino]propyl}phenoxymethyl-phenylphosphinic acid, lithium salt] |
| 21 | 1.1 | 70 | 10 | C[C@H](Cc1ccc(OCP(=O)(O)OCCCOCc2ccccc2)cc1)NC[C@H](O)COc1ccc(O)c(CO)c1 [Example 17, (SR)-4-{2-[2-Hydroxy-3-(4-hydroxy-3-hydroxymethylphenoxy)propylamino]propyl}phenoxymethylphosphonic acid, (3-benzyloxypropyl)ester, lithium salt] |

| Structure (SMILES) | Ki [1] [µM] | EC50 [2] [µM] | Emax [2] [%] | Ki [3] [µM] |
| --- | --- | --- | --- | --- |
| O=P(O)(COc1ccc(CCNC[C@H](O)COc2ccc(O)cc2)cc1)C1CCCCC1 [Example 29, (S)-4-{2-[2-Hydroxy-3-(4-hydroxyphenoxy)propylamino]ethyl}phenoxymethylcyclohexylphosphinic acid, lithium salt] | 288 | 1.7 | 72 | 269 |
